# Assay results as given in PubChem BioAssay (NCI).
#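 GI50: concentration for 50% inhibition of growth. TGI marks complete inhibition of growth.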
# Tests used:
# Experiment in all cases: NCI tumour cell line growth inhibition, 384-well format
# HOP-92 NSCLC = test system: HOP-92 NSCLC
# NCI/ADR-RES ovarian = test system: NCI/ADR-RES ovarian
# SK-MEL-28 melanoma = test system: SK-MEL-28 melanoma
# MDA-MB-468 breast = test system: MDA-MB-468 breast
# MDA-MB-231 breast = test system: MDA-MB-231 breast
# K-562 leukemia = test system: K-562 leukemia
# SNB-19 CNS = test system: SNB-19 CNS
# NCI-H226 lung = test system: NCI-H226 lung
# CCRF-CEM leukemia = test system: CCRF-CEM leukemia
# KM12 colon = test system: KM12 colon
# HT29 colon = test system: HT29 colon
# ACHN renal = test system: ACHN renal
# SK-MEL-2 melanoma = test system: SK-MEL-2 melanoma
# TK-10 renal = test system: TK-10 renal
# EKVX NSCLC = test system: EKVX NSCLC
# HCT-15 colon = test system: HCT-15 colon
# SF-539 CNS = test system: SF-539 CNS
# HS 578T breast = test system: HS 578T breast
# RXF 393 renal = test system: RXF 393 renal
# RPMI-8226 leukemia = test system: RPMI-8226 leukemia
# PC-3 prostate = test system: PC-3 prostate
# UO-31 renal = test system: UO-31 renal
# OVCAR-3 ovarian = test system: OVCAR-3 ovarian
# NCI-H322M lung = test system: NCI-H322M lung
# SF-268 CNS = test system: SF-268 CNS
# OVCAR-8 ovarian = test system: OVCAR-8 ovarian
# SN12C renal = test system: SN12C renal
# MCF7 breast = test system: MCF7 breast
# OVCAR-5 ovarian = test system: OVCAR-5 ovarian
# NCI-H522 lung = test system: NCI-H522 lung
# UACC-62 melanoma = test system: UACC-62 melanoma
# MOLT-4 leukemia = test system: MOLT-4 leukemia
# SK-OV-3 ovarian = test system: SK-OV-3 ovarian
# OVCAR-4 ovarian = test system: OVCAR-4 ovarian
# DU-145 prostate = test system: DU-145 prostate
# CAKI-1 renal = test system: CAKI-1 renal
# MDA-MB-435 melanoma = test system: MDA-MB-435 melanoma
# T-47D breast = test system: T-47D breast
# A549 NSCLC = test system: A549 NSCLC
# HL-60(TB) leukemia = test system: HL-60(TB) leukemia
# MALME-3M melanoma = test system: MALME-3M melanoma
# SNB-75 CNS = test system: SNB-75 CNS
# LOX IMVI melanoma = test system: LOX IMVI melanoma
# BT-549 breast = test system: BT-549 breast
# A498 renal = test system: A498 renal
# SF-295 CNS = test system: SF-295 CNS
# U251 glioblastoma = test system: U251 glioblastoma
# UACC-257 melanoma = test system: UACC-257 melanoma
# HOP-62 NSCLC = test system: HOP-62 NSCLC
# HCT-116 colon = test system: HCT-116 colon
# IGROV1 ovarian = test system: IGROV1 ovarian
# NCI-H23 lung = test system: NCI-H23 lung
# SW-620 colon = test system: SW-620 colon
# 786-0 renal = test system: 786-0 renal
# M14 melanoma = test system: M14 melanoma
structure (smiles),measurement,setting,value
O=c1[nH]c(=O)n(C2CC(O)C(CO)O2)cc1C(F)(F)F (stereo not given),GI50,HOP-92 NSCLC,50.8 µM
same,TGI,HOP-92 NSCLC,> 100 µM
same,GI50,NCI/ADR-RES ovarian,3.88 µM
same,TGI,NCI/ADR-RES ovarian,36.5 µM
same,GI50,SK-MEL-28 melanoma,6.78 µM
same,TGI,SK-MEL-28 melanoma,> 100 µM
same,GI50,MDA-MB-468 breast,2.61 µM
same,TGI,MDA-MB-468 breast,19.5 µM
same,GI50,MDA-MB-231 breast,23.6 µM
same,TGI,MDA-MB-231 breast,> 100 µM
same,GI50,K-562 leukemia,0.705 µM
same,TGI,K-562 leukemia,> 100 µM
same,GI50,SNB-19 CNS,3.45 µM
same,TGI,SNB-19 CNS,> 100 µM
same,GI50,NCI-H226 lung,15.3 µM
same,TGI,NCI-H226 lung,61.2 µM
same,GI50,CCRF-CEM leukemia,0.234 µM
same,TGI,CCRF-CEM leukemia,0.469 µM
same,GI50,KM12 colon,7.51 µM
same,TGI,KM12 colon,> 100 µM
same,GI50,HT29 colon,13.4 µM
same,TGI,HT29 colon,> 100 µM
same,GI50,ACHN renal,0.519 µM
same,TGI,ACHN renal,2.95 µM
same,GI50,SK-MEL-2 melanoma,> 100 µM
same,TGI,SK-MEL-2 melanoma,> 100 µM
same,GI50,TK-10 renal,14.6 µM
same,TGI,TK-10 renal,> 100 µM
same,GI50,EKVX NSCLC,> 100 µM
same,TGI,EKVX NSCLC,> 100 µM
same,GI50,HCT-15 colon,4.18 µM
same,TGI,HCT-15 colon,> 100 µM
same,GI50,SF-539 CNS,4.81 µM
same,TGI,SF-539 CNS,20.4 µM
same,GI50,HS 578T breast,25.4 µM
same,TGI,HS 578T breast,> 100 µM
same,GI50,RXF 393 renal,2.48 µM
same,TGI,RXF 393 renal,87.2 µM
same,GI50,RPMI-8226 leukemia,0.199 µM
same,TGI,RPMI-8226 leukemia,11.5 µM
same,GI50,PC-3 prostate,80.1 µM
same,TGI,PC-3 prostate,> 100 µM
same,GI50,UO-31 renal,2.55 µM
same,TGI,UO-31 renal,14.2 µM
same,GI50,OVCAR-3 ovarian,5.96 µM
same,TGI,OVCAR-3 ovarian,> 100 µM
same,GI50,NCI-H322M lung,66 µM
same,TGI,NCI-H322M lung,> 100 µM
same,GI50,SF-268 CNS,2.21 µM
same,TGI,SF-268 CNS,14.3 µM
same,GI50,OVCAR-8 ovarian,4.72 µM
same,TGI,OVCAR-8 ovarian,30.2 µM
same,GI50,SN12C renal,1.9 µM
same,TGI,SN12C renal,9 µM
same,GI50,MCF7 breast,0.212 µM
same,TGI,MCF7 breast,> 100 µM
same,GI50,OVCAR-5 ovarian,12 µM
same,TGI,OVCAR-5 ovarian,> 100 µM
same,GI50,NCI-H522 lung,21.8 µM
same,TGI,NCI-H522 lung,> 100 µM
same,GI50,UACC-62 melanoma,3.25 µM
same,TGI,UACC-62 melanoma,23 µM
same,GI50,MOLT-4 leukemia,0.197 µM
same,TGI,MOLT-4 leukemia,0.459 µM
same,GI50,SK-OV-3 ovarian,7.07 µM
same,TGI,SK-OV-3 ovarian,> 100 µM
same,GI50,OVCAR-4 ovarian,88.5 µM
same,TGI,OVCAR-4 ovarian,> 100 µM
same,GI50,DU-145 prostate,0.53 µM
same,TGI,DU-145 prostate,8.6 µM
same,GI50,CAKI-1 renal,4.13 µM
same,TGI,CAKI-1 renal,> 100 µM
same,GI50,MDA-MB-435 melanoma,8.93 µM
same,TGI,MDA-MB-435 melanoma,> 100 µM
same,GI50,T-47D breast,7.65 µM
same,TGI,T-47D breast,> 100 µM
same,GI50,A549 NSCLC,2.43 µM
same,TGI,A549 NSCLC,> 100 µM
same,GI50,HL-60(TB) leukemia,0.171 µM
same,TGI,HL-60(TB) leukemia,0.394 µM
same,GI50,MALME-3M melanoma,1.38 µM
same,TGI,MALME-3M melanoma,> 100 µM
same,GI50,SNB-75 CNS,15.9 µM
same,TGI,SNB-75 CNS,> 100 µM
same,GI50,LOX IMVI melanoma,0.813 µM
same,TGI,LOX IMVI melanoma,9.83 µM
same,GI50,BT-549 breast,0.763 µM
same,TGI,BT-549 breast,9.01 µM
same,GI50,A498 renal,7.94 µM
same,TGI,A498 renal,> 100 µM
same,GI50,SF-295 CNS,3.21 µM
same,TGI,SF-295 CNS,12.3 µM
same,GI50,U251 glioblastoma,4.87 µM
same,TGI,U251 glioblastoma,79.7 µM
same,GI50,UACC-257 melanoma,12.8 µM
same,TGI,UACC-257 melanoma,> 100 µM
same,GI50,HOP-62 NSCLC,2.27 µM
same,TGI,HOP-62 NSCLC,11 µM
same,GI50,HCT-116 colon,0.698 µM
same,TGI,HCT-116 colon,> 100 µM
same,GI50,IGROV1 ovarian,13 µM
same,TGI,IGROV1 ovarian,> 100 µM
same,GI50,NCI-H23 lung,2.06 µM
same,TGI,NCI-H23 lung,11.3 µM
same,GI50,SW-620 colon,1.24 µM
same,TGI,SW-620 colon,> 100 µM
same,GI50,786-0 renal,2.94 µM
same,TGI,786-0 renal,77.6 µM
same,GI50,M14 melanoma,2.42 µM
same,TGI,M14 melanoma,16.1 µM
